In patent US7453011B2, “Cycloalkyl substituted polyamines for cancer therapy and methods of synthesis therefor” (Progen Pharmaceuticals, Inc., priority 2001, dated 2008):
Structures can show the parent of a compound that is named as a salt. Where two headings read alike, the source gives them in different places.

Columns and labels:
[1] = tested on: DU145 human prostate cancer cell line; assay: MTT assay, DU145 cells; type: cell-based; settings: read-out: ID50 DU145
Protocol: (§1) The polyamine analogs inhibited prostate cancer cell growth in vitro., as indicated in Table 1 and FIG. 1, FIG. 2, FIG. 3, FIG. 4, and FIG. 5. Tissue cultures and the MTT assay were performed as follows. Additional protocols for in vitro assays are disclosed in International Patent Applications WO 00/66175, WO 00/66528, WO 00/66587, WO 98/17624, Valasinas et al., J. Med. Chem. 44:390-403 (2001), and U.S. Provisional Patent Application Ser. No. 60/329,982 filed Oct. 16, 2001.
(§2) Tissue Culture. Cells were seeded into 75 cm^2 culture flasks with 15 ml of Eagle's minimal essential medium supplemented with 10% fetal calf serum and nonessential amino acids. The flasks were incubated in a humidified 95% air/5% CO2 atmosphere. The cells were grown for at least 24 h to ensure that they are in the log phase of growth and then they were treated with the polyamine analogs. Cells were harvested by treatment for 5 min with STV (saline A, 0.05% trypsin, 0.02% EDTA) at 37° C. The flasks were rapped on the lab bench, pipetted several times and aliquots of cell suspension were withdrawn and counted using a Coulter particle counter that has been standardized for counting each cell line using a hemacytometer.
(§3) MTT Assay: Trypsinized cell suspensions were diluted to seed 80 μl suspensions containing 500 cells in each well of a 96 well Corning microtiter plate and incubated overnight at 37° C. in a humidified incubator in 5% CO2. 20 μl of appropriately diluted stock solution of each drug (i.e., polyamine analog) were added to the middle 8 columns of cell suspension in the microtiter plates. Each drug concentration was run in quadruplicate. Outer columns of the plates were used for buffer controls. Cells were incubated with the drug for 6 days at 37° C. in 5% CO2/H2O atmosphere. 25 μl of 5 mg/ml solution of 3-(4,5-dimethylthiazol-2-yl)-2,5-diphenyl tetrazolium bromide (MTT) were added to each well and incubated for 4 hours at 37° C. in 5% CO2/H2O incubator. Cells were lysed by incubating overnight with 100 μl lysis buffer (500 ml of the lysis buffer contains: 100 g lauryl sulfate (SDS), 250 ml of N,N-dimethylformamide, and 2 ml of glacial acetic acid, made up to volume with water; pH 4.8).
(§4) The color was monitored at room temperature at 570 nm in a E-max Precision Microplate Reader (Molecular Devices Corporation, Sunnyvale, Calif.) and data was analyzed using cell survival software supplied by Molecular Devices Corporation.
(§5) The effects of SL-11218 and SL-11231 on the growth of human prostate tumor cell lines PC-3, DU-145, DuPro and LnCap and on human breast cancer cell lines MCF-7 and MDA-MB-231 in culture were determined by an MTT assay. The growth inhibitory effects were expressed as ID50 value which is defined as the drug concentration required to inhibit 50% cell growth after 5 days of treatment. The results are shown in Table 2; the numbers are the average of the values determined in at least three separate experiments. Both compounds are effective in inhibiting human prostate tumor cell growth in culture.

[2] = tested on: PC-3 human prostate cancer cell line; assay: MTT assay, PC-3 cells; type: cell-based
Protocol: as §1, §2, §3, §4, §5

[3] = tested on: DuPro human prostate cancer cell line; assay: MTT assay, DuPro cells; type: cell-based
Protocol: as §1, §2, §3, §4, §5

[4] = tested on: large (~2000 mm^3) DU-145 tumor xenograft; assay: Large DU-145 tumor xenograft in nude mice; type: in vivo
Protocol: (§6) In addition, SL-11218 at a dose of 75 mg/kg i.p. for q1w×4 stabilized large (˜2000 mm^3) DU-145 tumor xenograft for 2 cycles with a 4 week gap between each cycle (FIG. 11a). Male athymic nude mice were given s.c. injections of 1×10^6 DU145 cells on Day 0. Beginning on Day 10, mice were given acidified water vehicle orally at 10 ml/kg dosing volume 1× weekly for 8 weeks. On D66 mice began weekly treatment of saline versus SL-11218 i.p. After cycle 1 there was a 27% reduction in tumor volume compared to vehicle treated controls. After cycle 2 there was a significant reduction of 64% with 15% drop in body weight which recovered between cycles. (Cycle 1, administration on days 66, 73, 80, 87; cycle 2, administration on days 115, 122, 129, 136.) BW p values were compared to untreated controls. At d87, p=0.005 for SL-11218. (For saline vehicle, n=9; at d 87 n=8; at d 101, n=4; for SL-11218 n=9; d 80 n=7; d 101 n=5). FIG. 11b indicates the effect of SL-11218 on animal bodyweight (saline vehicle, n=9, at d87, n=8; at d101 n=4; for SL-11218, n=9; at d80, n=7, at d101 n=5; p=0.015 at d98 and 0.001 at d132).

[5] = tested on: BxPC-3 human pancreatic tumor xenograft; assay: Human pancreatic tumor xenograft in nude mice; type: in vivo; settings: 10 days break
[6] = tested on: MDA-MB-231 human breast cancer cell line; assay: MTT assay, MDA-MB-231 cells; type: cell-based; settings: Table 2, 5 days of treatment, average of at least three experiments, read-out: ID50 MDA-MB-231
Protocol: as §3, with “Cells were lysed by incubating overnight with 100 μl lysis buffer (500 ml of the lysis buffer contains: 100 g lauryl sulfate (SDS), 250 ml of N,N-dimethylformamide, and 2 ml of glacial acetic acid, made up to volume with water; pH 4.8).” left out
as §4
(§7) The effects of SL-11218 and SL-11231 on the growth of human prostate tumor cell lines PC-3, DU-145, DuPro and LnCap and on human breast cancer cell lines MCF-7 and MDA-MB-231 in culture were determined by an MTT assay. […] The results are shown in Table 2; the numbers are the average of the values determined in at least three separate experiments. […]

[7] = Body weight of DU-145 tumor-bearing nude mice under treatment; type: in vivo
Protocol: (§8) Male athymic nude mice were given s.c. injections of 1×10^6 DU-145 cells on Day 0. Beginning on Day 7, mice were treated i.p q1w×4 for 3 cycles with either saline, 50 mg/kg SL-11218 or 75 mg/kg SL-11218 (pH 7.4) i.p. at 10 ml/kg dosing volume. (Cage issues in the control cage were due to a water bottle leaking and lack of food for 24 hours.) The treatment was carried out once weekly for four weeks (q1w×4) in 3 cycles with a 4 week gap between each cycle. (i.e., cycle 1, administration on days 7, 14, 21, 28; cycle 2, administration on days 49, 56, 63, 70; cycle 3, administration on days 98, 105, 112, 119). All p values were compared to vehicle treated mice.
(§9) The effect of SL-11231 at 12.5 mg/kg for 5 consecutive days against DU-145 human prostate tumor xenograft in nude mice is shown in FIG. 8a. […] (Note that the value reported in Table 1 for SL-11231 versus DU-145 cells is for a single experiment, while the value reported in Table 2 is an average of multiple experiments.)
as §6

[8] = tested on: DuPro human prostate tumor cell line; assay: Colony forming efficiency (CFE) assay, DuPro; type: cell-based; settings: FIG. 6
[9] = tested on: MCF-7 human breast cancer cell line; assay: MTT assay, MCF-7 cells; type: cell-based; settings: for IC50: Table 2, 5 days of treatment, average of at least three experiments, read-out: ID50 MCF-7
Protocol: as §3, §4, §5

[10] = tested on: DU-145 human prostate tumor xenograft; assay: DU-145 human prostate tumor xenograft in nude mice; type: in vivo
Protocol: as §8, §9

[11] = tested on: LnCap human prostate cancer cell line; assay: MTT assay, LnCap cells; type: cell-based; settings: read-out: ID50 LnCap
Protocol: as §1, §2
MTT Assay: Trypsinized cell suspensions were diluted to seed 80 μl suspensions containing 500 cells in each well of a 96 well Corning microtiter plate and incubated overnight at 37° C. in a humidified incubator in 5% CO2. […]
as §4, §7

[12] = tested on: Tsu-pr1-ADR human prostate cancer cell line; assay: MTT assay, Tsu-pr1-ADR cells; type: cell-based; settings: Table 1, read-out: ID50 Tsu-pr1-ADR
Protocol: as §1
as §2, with “Cells were harvested by treatment for 5 min with STV (saline A, 0.05% trypsin, 0.02% EDTA) at 37° C.” left out, “hemacytometer. […]” for “hemacytometer.”
as §4

[13] = tested on: Tsu-pr1 human prostate cancer cell line; assay: MTT assay, Tsu-pr1 cells; type: cell-based; settings: Table 1, read-out: ID50 Tsu-pr1
Protocol: as §1
as §2, with “Cells were harvested by treatment for 5 min with STV (saline A, 0.05% trypsin, 0.02% EDTA) at 37° C.” left out, “hemacytometer. […]” for “hemacytometer.”
as §4

[14] = multiple injection (ip) schedules; cited from earlier work
[15] = tested on: L1210 leukemia or Lewis lung carcinoma; settings: L1210 leukemia or Lewis lung carcinoma grafted in athymic nude mice; cited from earlier work
[16] = Table 1, DU145, SL-11231 value from a single experiment
[17] = Table 1, PC-3, read-out: ID50 PC-3
[18] = Table 1, human prostate cancer cell line DuPro, read-out: ID50 DuPro
[19] = Table 2, 5 days of treatment, average of at least three experiments
[20] = Table 2, 5 days of treatment, average of at least three experiments, read-out: ID50 PC3
[21] = Table 2, 5 days of treatment, average of at least three experiments, read-out: ID50 DUPRO

CCNCC1CC1CNCC1CC1CNCC1CC1CNCC (mixture of isomers) [SL-11215]
IC50 [1, 16]: 60 nM
IC50 [2, 17]: > 31200 nM
IC50 [3, 18]: 630 nM

CCNCC1CC1CNCCCCNCC1CC1CNCC.Cl.Cl.Cl.Cl (mixture of isomers) [SL-11218]
effect on large tumor xenograft ([4]; 75 mg/kg i.p. q1w×4, 2 cycles): stabilized
reduction in tumor volume compared to vehicle treated controls ([4]; 75 mg/kg i.p. q1w×4, after cycle 1): 27%
reduction in tumor volume compared to vehicle treated controls ([4]; 75 mg/kg i.p. q1w×4, after cycle 2): 64%
IC50 [1, 16]: 63 nM
IC50 [1, 19]: 60 nM
effect on human pancreatic tumor growth ([5]; 50 mg/kg i.p. q1d×5, 2 cycles): effectively inhibit human pancreatic tumor growth
IC50 [6]: > 31200 nM
IC50 [2, 17]: > 31200 nM
IC50 [2, 20]: > 31200 nM
bodyweight loss ([7]; 75 mg/kg i.p. q1w×4, 3 cycles, 120 days, DU-145 xenograft): without appreciable bodyweight loss
drop in body weight ([7]; 75 mg/kg i.p. q1w×4, after cycle 2, large DU-145 xenograft, recovered between cycles): 15%
cytotoxicity by CFE assay [8]: marked cytotoxicity
IC50 [3, 18]: 260 nM
IC50 [3, 21]: 260 nM
IC50 [9]: 4250 nM
activity against MCF-7 breast cancer cells ([9]; in words): some activity
effect on tumor growth ([10]; 50 mg/kg i.p. q1w×4, 3 cycles): temporarily arrested tumor growth
effect on tumor growth ([10]; 75 mg/kg i.p. q1w×4, 3 cycles): arrested tumor growth throughout the treatment period of 120 days

CCNCCCCNCC1CC1CNCCCCNCC1CC1CNCCCCNCC (mixture of isomers) [SL-11231]
IC50 [1, 16]: 80 nM
IC50 [1, 19]: 120 nM
IC50 ([11]; Table 1, LnCap): 150 nM
IC50 [11, 19]: 150 nM
effect on human pancreatic tumor growth ([5]; 12.5 mg/kg i.p. q1d×5, 2 cycles): effectively inhibit human pancreatic tumor growth
IC50 [6]: > 31200 nM
IC50 [2, 17]: > 31200 nM
IC50 [2, 20]: > 31200 nM
effect on animal bodyweight ([7]; 12.5 mg/kg for 5 consecutive days, DU-145 xenograft): without appreciable effects on animal bodyweight
IC50 [3, 18]: 380 nM
IC50 [3, 21]: 380 nM
IC50 [9]: > 31200 nM
effect on tumor growth ([10]; 12.5 mg/kg for 5 consecutive days): efficiently inhibits tumor growth

CCNCCCCNCC1CC1CNCCCCNCC (racemic) [SL-11093]
IC50 [12]: > 31200 nM
IC50 [1, 16]: 10 nM
IC50 ([11]; Table 1, LnCap): 210 nM
IC50 [2, 17]: 4170 nM
IC50 [3, 18]: 200 nM
IC50 [13]: 70 nM

CCNCCCCNCCCCNCCCCNCCCCNCC1CC1CNCCCCNCCCCNCCCCNCCCCNCC (racemic) [SL-11241]
IC50 [1, 16]: 200 nM
IC50 [2, 17]: 400 nM
IC50 [3, 18]: 340 nM

NCCCCNCC1CC1CNCCCCN (racemic) [SL-11245]
IC50 [1, 16]: 610 nM
IC50 [2, 17]: > 31200 nM
IC50 [3, 18]: > 31200 nM

CC(C)(C)NCCCCNCC1CC1CNCCCCNC(C)(C)C (racemic) [SL-11247]
IC50 [1, 16]: 11200 nM
IC50 [2, 17]: > 31200 nM
IC50 [3, 18]: > 31200 nM

CCNCCCCNCCCCNCCCCNCC [BE-4-4-4, ^1N,^14N-bisethylhomospermine]
maximum tolerated dose (MTD) [14]: ca. 6 mg/kg
increase in lifespan as compared to control [15]: ca. 6 fold

CCNCCCCNCC1CC1CNCCCCNCCCCNCC1CC1CNCCCCNCCCCNCC1CC1CNCCCCNCC (stereo not drawn) [SL-11232, 10,11-25,26-40,41-ter[(E)-1,2-cyclopropyl]-3,8,13,23,28,33,38,43,48-decaazapentacontane decahydrochloride]
IC50 [2, 17]: 300 nM
IC50 [3, 18]: 200 nM

CCNCCCCNCC1CC1CNCCCCN (stereo not drawn) [SL-11242]
IC50 ([2]; Homo sapiens, Table 1, PC-3, read-out: ID50 PC-3): > 31200 nM
